How the values were obtained:
[1] = test system: HCT116 cells; experiment: Cell death inhibitors in sparse HCT116 cells under cystine starvation or RSL3; format: cell-based, human; conditions: 5×10^4 cells/well; for inhibition of RSL3-induced cell death: 5 μM RSL3 24 h, with cell death inhibitors; for inhibition of cystine starvation-induced cell death: cystine-free media 30 h, Fer-1 1 μM, DFO 50 μg/mL, Z-VAD-FMK 20 μM, GSK'872 10 μM
Experimental: (§1) Measurement of cell death, cell viability and lipid peroxidation. Cell death was analyzed by propidium iodide (Invitrogen, Waltham, Mass., USA) or SYTOX Green (Invitrogen) staining followed by microscopy or flow cytometry. For 3D spheroids, cell viability was determined using the CellTiter-Glo® 3D Cell Viability Assay (Promega, Madison, Wis., USA) according to the manufacturer's instructions. Viability was calculated by normalizing ATP levels to spheroids treated with normal full media. To analyze lipid peroxidation, cells were stained with 5 μM BODIPY-C11 (Invitrogen) for 30 minutes at 37° C. followed by flow cytometric analysis.
To confirm that sparse HCT116 cells were dying from ferroptosis but not another cell death modality, various cell death inhibitors were tested: ferrostatin-1 (Fer-1) and DFO, which inhibit ferroptosis, Z-VAD-FMK, a pan-caspase inhibitor, and GSK'872, a selective RIPK3 inhibitor that blocks necroptosis. HCT116 cells were seeded at a density of 5×10^4 cells/well and grown for 24 hours. Cells were washed in PBS and cultured in cystine-free media with the indicated treatments for 30 h. Fer-1: Ferrostatin-1, 1 μM; DFO: iron chelator, 50 μg/mL; Z-VAD-FMK: pan-caspase inhibitor, 20 μM; GSK'872: RIPK3 inhibitor, 10 μM. HCT116 cells were seeded at a density of 5×10^4 cells/well and grown for 24 hours, then treated with 5 μM RSL3 and the indicated cell death inhibitors for 24 hours before measuring cell death. These experiments confirmed that cells underwent ferroptosis, instead of other modes of cell death, under these conditions (FIGS. 6C-6D). Similar cell density-dependent ferroptosis was previously observed by Seiler et al., Cell Metab. 8: 237-248 (2008) and Schneider et al., Neoplasia 12:254-263 (2010). In Seiler et al., mouse embryonic fibroblasts (MEFs) harboring two floxed GPX4 alleles survived and grew when seeded at high density, but upon passage at lower density they died rapidly. In Schneider et al., GPX4-deficient MEFs formed 3D tumor spheroids as well as wild-type MEFs by an unknown mechanism.

[2] = test system: HCT116 cells; experiment: Ferroptosis in confluent HCT116 cells expressing shEcad, shMerlin or shLats1/2; format: cell-based, human; conditions: cystine starvation or RSL3 plus
Experimental: as §1
The involvement of the Hippo signaling in the regulation of ferroptosis by cell-cell contact was also assessed. Cells depleted of Ecad, Merlin, or Lats were generated using shRNA technology. HCT116 cells were infected by lentiviruses expressing shRNA sequences targeting Ecad (shEcad), Merlin (shMerlin), or Lats1/2 (shLats1/2), as indicated. Knockdown efficiency was confirmed by Western blot (FIG. 2B). […] Cell death was measured at 30 h using SYTOX Green staining followed by flow cytometry. Lipid ROS was measured at 24 hours using C11-BODIPY staining coupled with flow cytometry. […] Cell death was measured at 18 h and lipid ROS was measured at 14 h (FIG. 11A).

[3] = test system: tumor spheroids of HCT116 cells; experiment: Erastin-induced cell death in HCT116 tumor spheroids; format: cell-based, human; conditions: 15 μM erastin with 2 μM Fer-1, 30 h
Experimental: Generation of three-dimensional spheroids. Spheroids were generated by plating tumor cells at 10^3/well into U-bottom Ultra Low Adherence (ULA) 96-well plates (Corning, Tewksbury, Mass., USA). Optimal three-dimensional structures were achieved by centrifugation at 600 g for 5 min followed by addition of 2.5% Matrigel (Corning). Plates were incubated for 72 h at 37° C., 5% CO2, 95% humidity for formation of a single spheroid of cells. Spheroids were then treated with erastin in fresh medium containing Matrigel for the indicated time.
as §1, with “To analyze lipid peroxidation, cells were stained with 5 μM BODIPY-C11 (Invitrogen) for 30 minutes at 37° C. followed by flow cytometric analysis.” left out
Tumor spheroids generated from shEcad, shMerlin and shLats1/2 cells were treated with 15 μM erastin with or without 2 μM Fer-1 for 30 h, and dead cells were stained green by SYTOX Green. Cell viability within the tumor spheroids was measured by determining ATP levels. […]

[4] = test system: MSTO-211H cells; experiment: Ferroptosis in confluent MSTO-211H cells (shMerlin, shNcad); format: cell-based, human
Experimental: as §1
To confirm the ferroptosis-regulating role of Merlin in mesothelioma cells, the effect of Merlin knockdown on ferroptosis sensitivity was assessed. MSTO-211H cells were infected with lentiviruses expressing shMerlin. RNAi knockdown efficiency was confirmed by Western blot (FIG. 3F). Then, shNT or shMerlin MSTO-211H cells were cultured to high confluence, at which point they were treated with media containing or lacking cystine, with or without Fer-1 for 24 h. Cell death was measured by SYTOX Green staining followed by flow cytometry (FIG. 3G). To measure lipid reactive species, shNT or shMerlin MSTO-211H cells were treated for 18 h, at which point they were stained with 2 μM C11-BODIPY for lipid ROS measurement (FIG. 311). Confluent MSTO-211H cells expressing shNT or shMerlin were also treated with 1 μM RSL3 with or without […] Fer-1. Cell death (left, 24 h after treatment) and lipid ROS production (right, 16 h) were measured (FIG. 13B).
Therefore, the cell density dependence of ferroptosis is not limited to epithelial cells expressing Ecad. […] To assess the expression of N-cadherin in MSTO-211H mesothelioma cells, the cells were cultivated at different cell densities, and the levels of Ncad, p-YAP and total YAP were analyzed by Western blot. […] Therefore, the potential role of Ncad in ferroptosis was tested. MSTO-211H cells were infected with lentiviruses expressing Ncad shRNA (shNcad) and selected with puromycin.

[5] = test system: MEFs; experiment: Ferroptosis and lipid ROS in MEFs; format: cell-based, mouse; conditions: Ferrostatin-1 2 μM; cystine starvation, erastin or RSL3
Experimental: as §1
Merlin-regulated ferroptosis in cell density dependent manner was also observed in MEFs, which are not of epithelial origin. Cell death of MEFs with different cell density induced by cystine starvation for 12 h was measured by PI staining (FIG. 15A), and flow cytometry (FIG. 15B). The effect of cystine starvation on lipid ROS production in MEFs cells with different cell density (6 h treatment) is also shown in FIG. 15B. […] As shown in FIGS. 15A-15D, increased cell density mitigated both cell death and lipid ROS generation induced by cystine starvation, erastin and RSL3 in MEFs.
MEFs also regulated the activity of YAP at high density in a Merlin-dependent manner. MEFs seeded at increasing density were probed for YAP localization by Immunofluorescence (FIG. 15E). The effect of Merlin was assessed by infecting MEFs with shMerlin lentivirus and selected with puromycin. […] As shown in FIGS. 15E-15F, with increasing cell confluence, there was an increase of YAP nuclear exclusion in MEFs, which was attenuated by Merlin knockdown.

[6] = test system: HCT116 cells; experiment: Ferroptosis in HCT116 cells expressing PAK-CAAX; format: cell-based, human
[7] = test system: HCT116-derived xenograft tumors; experiment: shLats1/2 HCT116 subcutaneous xenograft treated with IKE; format: in vivo, nude mice
Experimental: For shLats1/2 s.c. tumor models, female athymic nu/nu mice aged 6 to 8 weeks were injected in the right flank with 2×10^6 shNT HCT116 cells or shLats1/2 HCT116 cells. Tumors were measured with calipers every day. When tumors reached a mean volume of 90 mm^3, mice were randomized into four groups and treated with vehicle (65% D5W (5% dextrose in water), 5% Tween-80, 30% PEG-400) or 50 mg/kg IKE (65% D5W (5% dextrose in water), 5% Tween-80, 30% PEG-400) via IP injection once a day. At the end of the study, mice were euthanized with CO2 and tumors were taken for measurement of weight.
To determine whether Lats1/2, the kinases that directly phosphorylate and inactivate YAP, can have similar effects in vivo as Merlin, subcutaneous xenograft tumors were formed from HCT116 cells harboring hairpins targeting Lats1/2. In particular, HCT116 cells containing non-targeting hairpins or hairpins targeting both Lats1 and 2 were injected subcutaneously into nude mice (n=6 per group). Tumors were grown to a volume of 90 mm^3, at which point they were injected […] with 50 mg/kg imidazole ketone erastin (IKE) once a day for 12 days. Tumor volume was measured daily by caliper. Images of resected tumors and their masses were also quantified (FIGS. 19B-19C). Imidazole ketone erastin (IKE) is an erastin analog that is amenable for in vivo use because of the increased solubility and stability.

[8] = test system: 211H mesothelioma cells; experiment: Sorafenib-induced ferroptosis; format: cell-based, human; conditions: 10 μM sorafenib
Experimental: (§2) The effect of sorafenib on cell density-dependent ferroptosis was determined. First, HCT116 cells were seeded at a density of 0.5×10^5 cells/3.5 cm2 well (sparse) or 4×10^5 cells/3.5 cm2 well (confluent) and grown for 24 h. Cells were then treated with DMSO, 10 μM sorafenib, or 10 μM sorafenib and 2 μM Fer-1 as indicated. […] Second, ΔEcad or the parental HCT116 cells were seeded at 4×10^5 cells/3.5 cm2 well and grown for 24 h. Cells were then treated with 10 μM sorafenib and 2 μM Fer-1 as indicated. Third, HCT116 shNT or shMerlin cells, MSTO-211H shNT or shMerlin cells, HCT116 cells expressing YAP^S127A or the parental cells, MSTO-211H cells expressing YAP^S127A or the parental cells, and HCT116 shNT or shLats1/2 cells were seeded at high density and treated with 10 μM sorafenib and 2 μM Fer-1 as indicated.

[9] = test system: HCT116 cells; experiment: Sorafenib-induced ferroptosis; format: cell-based, human; conditions: 10 μM sorafenib
Experimental: as §2

[10] = test system: malignant mesothelioma; conditions: clinical trials; cited from earlier work
[11] = test system: 211H cells; experiment: Verteporfin and cystine starvation-induced ferroptosis; format: cell-based, human; conditions: verteporfin 0.5 μM
Experimental: (§3) To further confirm this conclusion, a pharmacological analysis was performed. As a transcriptional coactivator, YAP regulates the expression of multiple target genes through its interaction with the TEAD family of transcriptional factors. Verteporfin (VP), a pharmacological agent that can inhibit the interaction of YAP with the TEAD family members was used to determine the effect of Merlin on ferroptosis. […] YAP^S127A-expressing cells were also treated with verteporfin (0.5 μM) after 24 h of cystine starvation in shMerlin HCT116 or 211H cells.

[12] = test system: HCT116 cells; experiment: as above; format: cell-based, human; conditions: verteporfin 0.5 μM
Experimental: as §3

## CC(=O)N(O)CCCCCNC(=O)CCC(=O)N(O)CCCCCNC(=O)CCC(=O)N(O)CCCCCN [DFO]
[1]
  inhibition of RSL3-induced cell death: inhibited
  inhibition of cystine starvation-induced cell death: inhibited

## CCOC(=O)c1ccc(NC2CCCCC2)c(N)c1 [Fer-1, Ferrostatin-1]
[1]
  inhibition of RSL3-induced cell death: inhibited
  inhibition of cystine starvation-induced cell death: inhibited
[2]
  block of cell death by Fer-1, confluent knockdown cells: blocked cell death
[3]
  block of erastin-induced cell death in spheroids by Fer-1: blocked cell death
[4]; 1 μM RSL3 with 204 Fer-1
  block of RSL3-induced ferroptosis and lipid ROS in shMerlin cells by Fer-1: blocked
[4]; high confluence, 18 h
  block of lipid ROS production in cystine-deprived shMerlin cells by Fer-1: blocked
[4]; high confluence, cystine-free 24 h
  block of cystine deprivation-induced ferroptosis in shMerlin cells by Fer-1: blocked
[5]
  block of cell death and lipid ROS in confluent Merlin RNAi MEFs: blocked
[6]
  inhibition of RSL3-induced ferroptosis in PAK-CAAX cells by Fer-1: inhibited
  inhibition of cystine deprivation-induced ferroptosis in PAK-CAAX cells by Fer-1: inhibited

## CC(C)Oc1ccc(C(=O)Cn2ccnc2)cc1-n1c(CN2CCN(C(=O)COc3ccc(Cl)cc3)CC2)nc2ccccc2c1=O [IKE, imidazole ketone erastin]
[7]; Lats1/2 depleted HCT116 tumors, 50 mg/kg IKE once a day
  mass of resected xenograft tumors: reduced
[7]; shLats1/2 HCT116 tumors, 50 mg/kg IKE once a day for 12 days
  xenograft tumor growth (volume): grew slowly or receded

## CNC(=O)c1cc(Oc2ccc(NC(=O)Nc3ccc(Cl)c(C(F)(F)F)c3)cc2)ccn1 [sorafenib]
[8]
  sorafenib-induced ferroptosis at high cell density after inhibition of Merlin or activation of YAP: sensitize these cells to sorafenib-induced ferroptosis at high cell density
[9]
  sorafenib-induced ferroptosis at high cell density after loss of Ecad, Lats1/2, inhibition of Merlin or activation of YAP: sensitize these cells to sorafenib-induced ferroptosis at high cell density
  sorafenib-induced ferroptosis, sparse versus confluent cells: could induce cell density-dependent ferroptosis
[10]
  clinical outcome in malignant mesothelioma: can stabilize, but not necessarily treat mesothelioma

## Verteporfin
[11]; high density
  effect of Merlin knockdown and YAP^S127A overexpression on cystine starvation-induced ferroptosis: ablated the effect of Merlin knockdown and YAP^S127A overexpression
[11]; 24 h cystine starvation
  sensitivity of shMerlin cells to cystine starvation-induced ferroptosis: reduced cells sensitivity to ferroptosis
[12]; high density
  effect of Merlin knockdown and YAP^S127A overexpression on cystine starvation-induced ferroptosis: ablated the effect of Merlin knockdown and YAP^S127A overexpression
[12]; 24 h cystine starvation
  sensitivity of shMerlin cells to cystine starvation-induced ferroptosis: reduced cells sensitivity to ferroptosis

Source: US20220249484A1, “METHODS FOR PREDICTING RESPONSIVENESS OF CANCER TO FERROPTOSIS-INDUCING THERAPIES” (Memorial Sloan Kettering Cancer Center, priority 2019, published 2022)
